Data set [1] has as its system SNL rats. The experiment in a line: Mechanical allodynia (paw withdrawal threshold) in L5/L6 spinal nerve ligation (SNL) model of neuropathic pain. It is filed as in vivo, rat. To be noted: i.t., clonidine 10 μg, HD-283 30 μg, HD-286 and HD-288 up to 3 μg. The text has this:
A 3 cm incision was made in the back using the iliac crests as a midpoint. An incision was then made in the underlying muscle, which was then separated by both sharp and blunt dissection to expose the left transverse process of the fifth lumbar vertebra. The transverse process was removed using bone microrongeurs, and the fifth lumbar nerve was exteriorized from underneath the spinal column using a small metal hook and ligated using 4.0 silk suture with sufficient pressure to cause the nerve to bulge on each side of the ligature. The sixth lumbar nerve was exteriorized from underneath the iliac bone at the sciatic notch and ligated in a similar manner. All muscle layers were sutured using 4.0 chromic gut, the skin was sutured using 4.0 nylon suture.
The animal is placed in a stereotaxic frame to immobilize the head under pentobarbital anesthesia. The animal's body is lifted and supported to render the spinal column straight and level and the animal's head is placed downward such the top of the skull forms a 90° angle with the spinal column. A small incision is placed at the back of the neck and the underlying muscles are blunt dissected to reveal the atlanto-occipital membrane. A small incision is placed in the atlanto-occipital membrane through which a 32 ga polyethylene catheter is inserted that is 8 cm in length. The catheter is anchored to the neck muscles with 4.0 silk suture and the exterior wounds are closed with 4.0 nylon suture.
All compounds were dissolved in 0.9% (wt/vol) saline, pH 7.4 and administered through the intrathecal catheter in a volume of 5 μl, followed by 15 μl of 0.9% saline to flush the catheter.
Paw withdrawal threshold was determined before and at selected time points following intrathecal drug administration using calibrated von Frey filaments. The animals are placed in elevated Plexiglas chambers with wire mesh floors and acclimated for a minimum of 30 minutes. Beginning with a filament calibrated to bend with a force of 2 g of pressure, the filament is applied to the plantar surface of the left hindpaw with sufficient force to bend slightly and left in place for 8 seconds or until the animal withdraws it's paw from the filament. In the absence of a paw withdrawal, the next highest calibrated filament is applied in a similar manner. In the presence of a paw withdrawal, the next lowest calibrated filament is applied. This up-down method continues until 4 responses are recorded after an initial positive response. The paw withdrawal threshold is calculated using Dixon non-parametric statistics.
The potency and efficacy of novel SNRT analogs in reversing mechanical hypersensitivity were determined in the L5/L6 spinal nerve ligation (SNL) model of neuropathic pain in rats. Compounds were administered intrathecal (i.t.) and the effect on paw withdrawal threshold was assessed at various time points following treatment.

In data set [2] the target is T1, dopamine transport (DAT) sites (Rattus norvegicus, UniProt P23977).
T1 construct: from tissue; host or cells: Sprague-Dawley rat striatum membranes
Put plainly: DAT binding, displacement of [125I]RTI-55 in rat striatum membranes. How it is done: Frozen brains from Sprague-Dawley rats are obtained commercially and striata are dissected on ice. […] Tubes are incubated for 50 min at 25° C., and the reaction is terminated by rapid filtration with 3-5 ml of cold Tris buffer through Whatman GF/B glass fiber filters pre-soaked in Tris buffer containing 0.1% BSA for at least 1 h. Non-specific binding is determined in the presence of 1 μMWF-23. […]
For orientation: Displacement assays read how much labelled ligand stays bound in the presence of the test substance.

The target of data set [3] is T2, norepinephrine transporters (NET) (Rattus norvegicus, UniProt Q9WTR4).
T2 construct: Whole rat brains (minus cerebellum) are homogenized; from tissue; host or cells: rat whole brain minus cerebellum, membranes
Put plainly: NET binding, displacement of [3H]nisoxetine in rat brain membranes. How it is done: (§1) Binding of analogs at norepinephrine transporters (NET) was determined by displacement of [^3H]nisoxetine binding. […] The membranes are resuspended in nisoxetine assay buffer (300 mM NaCl, 5 mM KCl, 50 mM Tris-HCl, pH 7.4) and centrifuged again before final resuspension in volumes of buffer. Assay tubes contain 750 μl of brain membranes, [^3H]nisoxetine (0.7 nM) together with unlabeled drugs dissolved in nisoxetine assay buffer to a final volume of 1 ml. Tubes are incubated for 40 min at 25° C., and the reaction is terminated by rapid filtration with 3×4 mL of cold Tris buffer through Whatman GF/B glass fiber filters which have been pre-soaked in Tris buffer containing 0.1% BSA for at least 1 h. Non-specific binding is determined in the presence of 1 μM desipramine. In [^3H]citalopram and [^3H]nisoxetine binding assays, radioactivity is determined by liquid scintillation spectrophotometry (efficiency: 50%) after eluting filters overnight in 5 mL of Ecolite scintillation fluid (ICN). IC50 values are calculated from displacement curves using 7-10 concentrations of unlabeled analogs. […] For [^3H]paroxetine and [^3H]nisoxetine binding assays, Ki values are calculated using the Cheng-Prusoff equation.

Data set [4] can be described thus: Log-P (Table 1). It is filed as physicochemical.
The target of data set [5] is T3, 5-HT transport (SERT) sites (Rattus norvegicus, UniProt P31652).
T3 construct: Tissue is obtained from frozen rat brains as described above; from tissue; host or cells: rat frontal cortex membranes (frozen rat brains)
The experiment in a line: SERT binding, displacement of [3H]citalopram in rat frontal cortex membranes. The protocol: Affinities of analogs at 5-HT transport (SERT) sites are determined by displacement of [^3H] citalopram binding in membranes from rat frontal cortex. […] Assay tubes contain 50 mg (original wet weight) of membranes, 0.4 nM [^3H]citalopram, and various concentrations of unlabeled drugs dissolved in citalopram assay buffer in a final volume of 2 ml. Tubes are incubated for 60 min at 25° C., and the reaction is terminated by rapid filtration with 3×4 mL of cold Tris buffer through Whatman GF/B glass fiber filters pre-soaked in Tris buffer containing 0.1% BSA for at least 1 h. Non-specific binding is determined in the presence of 10 μM fluoxetine.
as §1

T2 sequence (Q9WTR4 1-597): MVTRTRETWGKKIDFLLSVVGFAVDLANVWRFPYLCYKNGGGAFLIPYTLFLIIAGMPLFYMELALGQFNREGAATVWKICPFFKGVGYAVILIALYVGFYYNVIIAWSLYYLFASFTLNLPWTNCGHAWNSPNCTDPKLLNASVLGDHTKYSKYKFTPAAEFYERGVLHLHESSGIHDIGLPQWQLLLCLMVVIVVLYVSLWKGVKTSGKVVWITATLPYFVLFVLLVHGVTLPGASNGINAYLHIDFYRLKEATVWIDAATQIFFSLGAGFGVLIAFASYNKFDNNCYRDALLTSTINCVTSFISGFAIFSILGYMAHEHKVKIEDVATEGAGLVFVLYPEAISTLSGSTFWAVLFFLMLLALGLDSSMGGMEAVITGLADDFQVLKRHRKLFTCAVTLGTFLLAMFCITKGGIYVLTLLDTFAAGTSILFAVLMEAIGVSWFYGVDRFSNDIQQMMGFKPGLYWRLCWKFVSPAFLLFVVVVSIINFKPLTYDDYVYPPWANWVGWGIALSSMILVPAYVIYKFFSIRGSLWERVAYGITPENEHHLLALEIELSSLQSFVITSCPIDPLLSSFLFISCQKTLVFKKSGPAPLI
T3 sequence (P31652 whole entry): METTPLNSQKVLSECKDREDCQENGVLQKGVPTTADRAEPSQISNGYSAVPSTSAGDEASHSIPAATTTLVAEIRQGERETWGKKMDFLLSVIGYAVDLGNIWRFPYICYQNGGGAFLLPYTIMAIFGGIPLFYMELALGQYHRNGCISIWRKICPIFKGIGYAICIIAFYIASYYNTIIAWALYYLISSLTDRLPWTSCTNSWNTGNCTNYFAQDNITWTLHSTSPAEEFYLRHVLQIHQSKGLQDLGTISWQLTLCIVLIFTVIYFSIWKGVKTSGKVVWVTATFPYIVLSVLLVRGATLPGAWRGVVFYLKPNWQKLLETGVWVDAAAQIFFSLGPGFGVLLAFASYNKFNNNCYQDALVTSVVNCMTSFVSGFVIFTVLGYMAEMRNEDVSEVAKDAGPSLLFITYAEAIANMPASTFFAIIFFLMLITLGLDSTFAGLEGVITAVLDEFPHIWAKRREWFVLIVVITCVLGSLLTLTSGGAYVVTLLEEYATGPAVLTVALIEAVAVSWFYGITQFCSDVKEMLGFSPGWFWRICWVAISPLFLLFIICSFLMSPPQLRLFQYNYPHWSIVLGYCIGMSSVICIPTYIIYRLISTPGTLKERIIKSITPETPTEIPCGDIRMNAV
T1 sequence (P23977 whole entry): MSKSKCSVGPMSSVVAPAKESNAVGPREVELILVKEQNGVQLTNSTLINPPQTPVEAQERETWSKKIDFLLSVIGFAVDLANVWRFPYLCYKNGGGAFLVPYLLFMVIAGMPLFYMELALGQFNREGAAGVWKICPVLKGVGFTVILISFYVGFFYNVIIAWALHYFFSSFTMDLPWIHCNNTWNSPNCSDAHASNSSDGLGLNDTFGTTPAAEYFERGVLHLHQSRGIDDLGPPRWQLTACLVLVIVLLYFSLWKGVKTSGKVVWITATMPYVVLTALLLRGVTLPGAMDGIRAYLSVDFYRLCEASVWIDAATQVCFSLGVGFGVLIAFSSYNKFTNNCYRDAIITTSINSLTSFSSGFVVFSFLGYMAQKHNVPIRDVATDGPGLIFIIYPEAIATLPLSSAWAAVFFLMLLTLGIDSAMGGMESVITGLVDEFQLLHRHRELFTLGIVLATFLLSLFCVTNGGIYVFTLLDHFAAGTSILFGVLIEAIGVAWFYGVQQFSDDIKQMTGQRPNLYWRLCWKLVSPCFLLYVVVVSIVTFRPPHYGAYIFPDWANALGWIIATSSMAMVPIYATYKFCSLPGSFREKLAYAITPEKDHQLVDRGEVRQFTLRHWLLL

By IC50 is commonly meant the concentration that gives 50% inhibition. A word on the Ki: it is the dissociation constant of the complex between target and ligand, obtained from inhibition or displacement. Lower therefore signals a stronger hold on the target. As to `CCN(CC)C(=O)C1(c2ccccc2)CC1CN` (stereo not drawn) [HD-283, Milnacipran, reference compound], in data set [1], the “anti-allodynic effect (in words)” value is given as “reversed mechanical allodynia”. The compound also returned an IC50 in data set [2] of 1970 ± 230 nM. Also, the inhibition constant (Ki) in data set [3] was found to be 23.8 ± 1.7 nM; in data set [5] it was 35.1 ± 4.4 nM. Moreover, the “transporter selectivity (in words)” value in data set [3] (NET versus SERT binding) is “non-selective”. This compound gave a Log-P in data set [4] of 1.91.

Values taken from patent US10207984B2, “Cyclopropyl derivatives and methods of use” (Emory University, priority 2011, dated 2019).
